This note sets out measurements from ChEMBL document CHEMBL5380860, “Design, Synthesis, and Antitumor Activity of Potent and Selective EGFR L858R/T790M Inhibitors and Identification of a Combination Therapy to Overcome Acquired Resistance in Models of Non-small-cell Lung Cancer” (J Med Chem, 2023).

The IC50 is the concentration at which inhibition is half-maximal.

Data set [1] concerns Epidermal growth factor receptor (Homo sapiens), P00533 [L858R]. Kind of data set: Inhibition of human partial length EGFR (R669 to V1011 residues) L858R mutant expressed in bacterial expression system assessed as residual activity at 1 uM by KINOMEscan analysis.
Data set [2] in a line: Toxicity in BALB/c mouse xenografted with N-(3-((6-Fluoro-2-((4-(4-methylpiperazin-1-yl)phenyl)amino)quinazolin-4-yl)amino)phenyl)acrylamide-resistant human NCI-H1975 cells assessed as changes in kidney morphological changes at 20 mg/kg/day, ip in presence of ACK1 inhibitor, dasatinib by hematoxylin-eosin staining based analysis. It counts as organism-based. As to conditions: in vivo. For orientation: In xenograft studies the graft and the host belong to different species.

For data set [3], the system named is NCI-H1975. The data set is described as follows: Inhibition of clonogenicity in human NCI-H1975 cells assessed as inhibition of colony formation incubated for 14 days by crystal violet staining based analysis. Format: functional, cell-based. As to conditions: dose 0.1-10 µM, time 14.0 day.
Data set [4] relates to NCI-H1975. The data set is described as follows: Inhibition of cell migration in human NCI-H1975 cells incubated for 48 hrs by scratch wound healing assay. Format: functional, cell-based. As to conditions: dose 0.1-10 µM.
For data set [5], the system named is NCI-H1975. The data set is described as follows: Inhibition of clonogenicity in human NCI-H1975 cells assessed as inhibition of colony formation at 0.1 uM incubated for 14 days by crystal violet staining based analysis. Format: functional, cell-based. The note with it: time 14.0 day.
The target of data set [6] is Epidermal growth factor receptor (Homo sapiens, UniProt P00533, T790M). Kind of data set: Inhibition of human partial length EGFR (R669 to G1022 residues) T790M mutant expressed in mammalian expression system by KINOMEscan analysis.

Molecules are shown by their SMILES. Active and inactive are the calls of the source. The rule behind the calls is not given here.

Take `C=CC(=O)Nc1cccc(Nc2nc(Nc3ccc(N4CCN(C)CC4)cc3)nc3ccc(F)cc23)c1`: the Activity in data set [1] is 1%; in data set [2], “Non-Toxic”. Moreover, the inhibition entry in the data set on NCI-H1975 [3] and in the data set on NCI-H1975 [4] was “Dose-Dependent Effect” in each case. For the same compound, the inhibition result in the data set with NCI-H1975 [5] was “Active”. Half-maximal inhibition in data set [6] (IC50) required 6.7 nM.
